Data: patent US20040116369A1, “Interferon regulatory factor-1/human estrogen receptor fusion protein and its use for treating carcinomas” (priority 2001, published 2004)

Key:
[1] = system: HepaIRF-1hER cell clones; test: IFN secretion measured by antiviral assay in culture supernatant; assay type: cell-based, murine; details: +E2 1 μM, five days, normalized to 10^6 cells
Method: For activation of IRF-1 in the IRF-1-hER fusion protein, E2 (SERVA, Frankfurt, Germany) was added to the cell culture medium to reach a final concentration of 1 μM.
(§1) IFN-Test. The interferon concentrations in the cell culture supernatants were determined by an antiviral assay imploying mouse L929 cells (43). To confirm the specificity of the antiviral activity a neutralizing monoclonal antibody directed against mouse IFN-β was added to the supernatant before addition to the test cells.

[2] = system: NIH3T3TA/IH/MR cells; test: Proliferation (metabolic activity, WST); assay type: cell-based, murine; details: +E2 1 μM, seven days after treatment
Method: (§2) Measurement of cell growth. For determination of cell growth 2×10^3 cells/well were seeded into microtiter plates and serial dilutions (1:1) were performed allowing several independent measurement points. Cells were treated with the indicated concentration of β-estradiol. Cell growth was determined using the WST kit (Roche Diagnostics, Mannheim, Germany) following the manufacturer's instruction. Mean values of triplicates resulting in less than 10% deviation were plotted.
The effects of IRF-1 in oncogenically transformed NIH3T3 cells were examined. NIH3T3 cells conditionally expressing the oncogenes c-myc and c-Ha-ras were used. Both oncogenes were bicistrinically expressed under the control of the tetracycline regulatable promoter (Kröger, Dissertation, Universität Braunschweig, 1999). The cells were stably transfected with the IRF-1-hER fusion protein encoding construct. This cell line allows the investigation of IRF-1 effects in the non-transformed NIH3T3 cells (presence of Doxycycline) and in the transformed state of the cells (absense of Doxycycline). The antitumoral activity of IRF-1 in vitro was investigated: Influence on proliferation, soft agar growth and IFN induction with and without IRF-1hER activation by E2 treatment were measured. This was done in the non-transformed as well as in the transformed state. E2 and Doxycyline were added for five days.

[3] = system: NIH3T3TA/IH/MR cells; test: Anchorage independent growth in soft agar; assay type: cell-based, murine; details: +E2 1 μM, two weeks after treatment
Method: Assay for anchorage independent growth. Anchorage-independent growth capability was determined by assessing the colony-formation efficiency of cells suspended in soft agar. 1×10^3 cells were seeded in 50 μl of 0.3% overlay agar in microtiter plates coated with 50 μl 0.6% underlay agar. The induction medium was added to the top (50 μl/well). […] To determine wether IRF-1 reverses the transformed phenotype of the cells to the formation of colonies in soft agar was assayed. […] In contrast, in the absence of Doxycycline (transformed status) the cells grew well and formed soft agar clones. The ability of soft agar growth was completely abolished by the activation of IRF-1 by E2 gift (Table 3).

[4] = system: NIH3T3TA/IH/MR cells; test: IFN secretion by antiviral assay; assay type: cell-based, murine; details: +E2 1 μM, five days, normalized to 10^6 cells
Method: as §1
IFN secretion as determined by an antiviral assay was taken as a measure of IRF-1 activity.

[5] = system: Hepa1-6 (wt) tumors; test: Subcutaneous tumor growth in syngeneic C57L/J mice; assay type: in vivo; details: 1.5 mg E2 every two days i.p.
From the text: (§3) Tumor model. The Hepa1-6 tumor model in C57L/J mice (44) was chosen because they show reliable growth in the syngeneic host. Hepa1-6 cells are a derivative of the BW7756 mouse hepatoma that arose in a C57L mouse. MHC class I and II expression is identical between C57L and C57L/J mice and Hepa1-6 HCCs are characterized by AFP expression. […] After 6 days, tumors were visible and reached a size of about 2000 mm^3 after a mean time of 18 days. This tumor size was used as endpoint in the invention, and mice were subsequently sacrificed. Tumor incidence and volume were assessed every two days using calipers. Data are presented as mean volume±SE.
(§4) Tumor protection studies. C57L/J mice were inoculated with 1×10^7 Hepa1-6 (groups 1 and 2) or HepaIRF-1hER (groups 3 and 4) cells into the right flank. Group 5 was not inoculated with any tumor. The different groups were treated as follows:
(§5) The efficacy of IRF-1 activation as a therapeutic vaccine against tumors was examined. Mice were injected subcutaneosly with HepaIRF-1hER cells in the right flank and wt Hepa1-6 cells into the left flank. The animals were either treated with 1.5 mg E2 every two days or were left untreated. Activation of IRF-1-hER abolished tumor growth of HepaIRF-1hER cells on the right flank of the mice.

[6] = system: HepaIRF-1hER tumors; test: Subcutaneous tumor growth in syngeneic C57L/J mice; assay type: in vivo
From the text: as §3, §4, §5

[7] = system: Hepa1-6 cell clones expressing IRF-1hER (c4, c9, c22); test: Cell growth (WST metabolic activity); assay type: cell-based, murine; details: Mus musculus, Hepa1-6, 168 h, 7 days after IRF-1 activation, 1 μM β-estradiol, read-out: extent of proliferation inhibition
Method: as §2

[8] = system: NIH3T3TA/MR/IH cells; test: Tumor growth of transformed cells in nude mice; assay type: in vivo, NMRI nude mice; details: 1.5 mg E2 every two days i.p.; 10^6 cells s.c.
Method: Male 6-8-week old NMRI nude mice (Harlan Winkelmann, Borchen, Germany) were maintained in the SPF unit of the animal facility of German Research Center for Biotechnology. Mice were divided into two experimental groups, five mice for each group. 1×10^6 cells in 0.2 ml PBS NIH3T3TA/MR/IH cells were injected subcutaneously into the flanks of the mice. The groups were treated as follows: group 1: no treatment (n=5); group 2: 1.5 mg of E2 every two days i.p. (n=4). Tumor volumes were measured and recorded three times a week using calipers. Data are presented as mean value of tumor volume.

**Q.** For `C[C@]12CC[C@@H]3c4ccc(O)cc4CC[C@H]3[C@@H]1CC[C@@H]2O` [E2, β-estradiol], which IFN secretion ([1]; clone c4) is on record?
**A.** The IFN secretion was 125 IU/ml.

**Q.** And the IFN secretion ([1]; clone c9)?
**A.** Its IFN secretion is 125 IU/ml.

**Q.** And the IFN secretion ([1]; clone c22)?
**A.** Its IFN secretion is 180 IU/ml.

**Q.** And the Proliferation ([2]; +DOX 2 μg/ml (non-transformed))?
**A.** Its Proliferation is 60%.

**Q.** And the Proliferation ([2]; −Dox (transformed))?
**A.** Its Proliferation is 65%.

**Q.** What about the “Soft agar growth (number of clones)” value ([3]; +DOX 2 μg/ml (non-transformed)) of the same molecule?
**A.** The value was 0.

**Q.** What about the “Soft agar growth (number of clones)” value ([3]; −Dox (transformed)) of the same molecule?
**A.** Its value is 0.

**Q.** What about the IFN secretion ([4]; +DOX 2 μg/ml) of the same molecule?
**A.** Its IFN secretion is 750 IU/ml.

**Q.** And the IFN secretion ([4]; −Dox)?
**A.** Its IFN secretion is 750 IU/ml.

**Q.** And the “Tumor volume (mean ± SD)” value ([5]; Hepa1-6 (wt) 5 × 10^6 cells s.c.)?
**A.** The value was 1630 ± 596 mm^3.

**Q.** What about the “Tumor volume (mean ± SD)” value ([5]; Hepa1-6 tumor on left flank of mice also carrying HepaIH on right flank) of the same molecule?
**A.** Its value is 179 ± 288 mm^3.

**Q.** And the “Tumor volume (mean ± SD)” value ([6]; HepaIH 5 × 10^6 cells s.c., 1.5 mg E2 every two days i.p.)?
**A.** Its value is 22,4 ± 179 mm^3.

**Q.** And the “mice protected against challenge” value ([6]; HepaIRF-1hER tumor, E2 treatment)?
**A.** Its value is 75%.

**Q.** What about the “tumor size after 40 days” value ([6]; the two E2 treated animals that developed tumors) of the same molecule?
**A.** Its value is 450 mm^3.

**Q.** What about the inhibition at 1 µM [7] of the same molecule?
**A.** Its inhibition at 1 µM is 40 to 80%.

**Q.** What about the “mice that developed no tumors” value [8] of the same molecule?
**A.** The value was 40%.
